This experiment deals with T1, human poly-histidine tagged KSP motor domain (KSP(367H)) (Homo sapiens, UniProt P52732).
T1 construct: were used to amplify the motor domain and the neck linker region; made in house; host or cells: E. coli BL21 (DE3), vector pRSETa
T1 sequence (P52732 18-359 limits assumed): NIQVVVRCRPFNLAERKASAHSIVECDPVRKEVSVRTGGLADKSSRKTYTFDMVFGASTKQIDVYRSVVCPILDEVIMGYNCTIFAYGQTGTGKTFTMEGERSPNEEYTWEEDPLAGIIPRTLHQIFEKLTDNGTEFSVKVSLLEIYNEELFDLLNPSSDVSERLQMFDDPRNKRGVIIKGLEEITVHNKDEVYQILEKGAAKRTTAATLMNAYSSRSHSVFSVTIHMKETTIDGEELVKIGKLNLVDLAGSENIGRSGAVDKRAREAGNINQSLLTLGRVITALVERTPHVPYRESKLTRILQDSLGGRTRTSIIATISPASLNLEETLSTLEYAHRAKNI
The experiment can be described thus: Kinesin ATPase In Vitro Assay. It is filed as biochemical. The method, then: I. Kinesin ATPase In Vitro Assay
The N-terminal primer 5′-[…] (SEQ. ID. NO.: 1) and the C-terminal primer 5′-[…] […] (SEQ. ID. NO.: 2)
were used to amplify the motor domain and the neck linker region. The PCR products were digested with AseI and XhoI, ligated into the NdeI/XhoI digestion product of pRSETa (Invitrogen) and transformed into E. coli BL21 (DE3).
Cells were grown at 37° C. to an OD600 of 0.5. After cooling the culture to room temperature expression of KSP was induced with 100 μM IPTG and incubation was continued overnight. Cells were pelleted by centrifugation and washed once with ice-cold PBS. Pellets were flash-frozen and stored −80° C.
Protein Purification: Cell pellets were thawed on ice and resuspended in lysis buffer (50 mM K-HEPES, pH 8.0, 250 mM KCl, 0.1% Tween, 10 mM imidazole, 0.5 mM Mg-ATP, 1 mM PMSF, 2 mM benzimidine, 1× complete protease inhibitor cocktail (Roche)). Cell suspensions were incubated with 1 mg/ml lysozyme and 5 mM β-mercaptoethanol on ice for 10 minutes, followed by sonication (3×30 sec). All subsequent procedures were performed at 4° C. Lysates were centrifuged at 40,000×g for 40 minutes. Supernatants were diluted and loaded onto an SP Sepharose column (Pharmacia, 5 ml cartridge) in buffer A (50 mM K-HEPES, pH 6.8, 1 mM MgCl2, 1 mM EGTA, 10 μM Mg-ATP, 1 mM DTT) and eluted with a 0 to 750 mM KCl gradient in buffer A. Fractions containing KSP were pooled and incubated with Ni-NTA resin (Qiagen) for one hour. The resin was washed three times with buffer B (Lysis buffer minus PMSF and protease inhibitor cocktail), followed by three 15-minute incubations and washes with buffer B. Finally, the resin was incubated and washed for 15 minutes three times with buffer C (same as buffer B except for pH 6.0) and poured into a column. KSP was eluted with elution buffer (identical to buffer B except for 150 mM KCl and 250 mM imidazole). KSP-containing fractions were pooled, made 10% in sucrose, and stored at −80° C.
Microtubules are prepared from tubulin isolated from bovine brain. Purified tubulin (>97% MAP-free) at 1 mg/ml is polymerized at 37° C. in the presence of 10 μM paclitaxel, 1 mM DTT, 1 mM GTP in BRB80 buffer (80 mM K-PIPES, 1 mM EGTA, 1 mM MgCl2 at pH 6.8). The resulting microtubules are separated from non-polymerized tubulin by ultracentrifugation and removal of the supernatant. The pellet, containing the microtubules, is gently resuspended in 10 μM paclitaxel, 1 mM DTT, 50 μg/ml ampicillin, and 5 μg/ml chloramphenicol in BRB80.
The kinesin motor domain is incubated with microtubules, 1 mM ATP (1:1 MgCl2: Na-ATP), and compound at 23° C. in buffer containing 80 mM K-HEPES (pH 7.0), […], 1 mM DTT, 1 mM MgCl2, and 50 mM KCl. The reaction is terminated by a 2-10 fold dilution with a final buffer composition of 80 mM HEPES and 50 mM EDTA. […] The reaction is incubated for 10 minutes at 23° C., and the absorbance of the phospho-molybdate complex is measured at 540 nm.

The mark [1] stands for this setting: (3R,4R) enantiomeric form tested, kinesin motor domain with microtubules, 1 mM ATP, 23° C., free phosphate by quinaldine red/ammonium molybdate, read-out: IC50.

pIC50: −log10 of the molar value. Read-outs that look alike come from different tables or passages of the source.

One may read the pIC50 as −log10 of the IC50, conventionally taken in molar units.

Turning to `CC(=O)C1=NN2c3cc(F)ccc3OC[C@H]2[C@@]1(CCCN1CCN(C(=O)OC(C)(C)C)CC1)c1ccccc1` [Compound 4-24, tert-butyl 4-{3-[(3R,4R)-2-acetyl-8-fluoro-3-phenyl-3a,4-dihydro-3H-pyrazolo[5,1-c][1,4]benzoxazin-3-yl]propyl}piperazine-1-carboxylate], under setting [1], the pIC50 is at least 4.52.
For the molecule `CC(=O)C1=NN2c3cc(F)ccc3OC[C@H]2[C@@]1(CCCN1CCN(C)C(=O)C1)c1ccccc1` [Compound 4-37, 4-{3-[(3R,4R)-2-acetyl-8-fluoro-3-phenyl-3a,4-dihydro-3H-pyrazolo[5,1-c][1,4]benzoxazin-3-yl]propyl}-1-methylpiperazin-2-one], the pIC50 under setting [1] is at least 4.52.
With `CC(=O)C1=NN2c3cc(F)ccc3OC[C@H]2[C@@]1(CCCN1CCN(C(C)=O)CC1)c1ccccc1` [Compound 5-10, 1-{(3R,4R)-3-[3-(4-acetylpiperazin-1-yl)propyl]-8-fluoro-3-phenyl-3a,4-dihydro-3H-pyrazolo[5,1-c][1,4]benzoxazin-2-yl}ethanone], the pIC50 was at least 4.52.
As to `CC(=O)C1=NN2c3cc(F)ccc3OC[C@H]2[C@@]1(CCCN1CCN(C(=O)c2cc(C)on2)CC1)c1ccccc1` [Compound 4-35, 1-[(3R,4R)-8-fluoro-3-(3-{4-[(5-methylisoxazol-3-yl)carbonyl]piperazin-1-yl}propyl)-3-phenyl-3a,4-dihydro-3H-pyrazolo[5,1-c][1,4]benzoxazin-2-yl]ethanone], the pIC50 under setting [1] was at least 4.52.
`CC(=O)C1=NN2c3cc(C)ccc3OCC2C1(CCCN(C)C)c1ccccc1` [Compound 4-18, (3R,4R) 1-{3-[3-(dimethylamino)propyl]-8-methyl-3-phenyl-3a,4-dihydro-3H-pyrazolo[5,1-c][1,4]benzoxazin-2-yl}ethanone] had a pIC50 of at least 4.52.
For the molecule `CC(=O)C1=NN2c3cc(F)ccc3OC[C@H]2[C@@]1(CCCN1CCN(C(=O)N(C)C)CC1)c1ccccc1` [Compound 4-29, 4-{3-[(3R,4R)-2-acetyl-8-fluoro-3-phenyl-3a,4-dihydro-3H-pyrazolo[5,1-c][1,4]benzoxazin-3-yl]propyl}-N,N-dimethylpiperazine-1-carboxamide], under setting [1], the pIC50 was at least 4.52.
`CC(=O)C1=NN2c3cc(C)ccc3OCC2C1(CCCN1CCOCC1)c1ccccc1` [Compound 4-19, (3R,4R) 1-[8-methyl-3-(3-morpholin-4-ylpropyl)-3-phenyl-3a,4-dihydro-3H-pyrazolo[5,1-c][1,4]benzoxazin-2-yl]ethanone] showed a pIC50 of at least 4.52.
For `CC(=O)C1=NN2c3cc(F)ccc3OC[C@H]2[C@@]1(CCCN1CCN(C(N)=O)CC1)c1ccccc1` [Compound 4-27, 4-{3-[(3R,4R)-2-acetyl-8-fluoro-3-phenyl-3a,4-dihydro-3H-pyrazolo[5,1-c][1,4]benzoxazin-3-yl]propyl}piperazine-1-carboxamide], under setting [1], the negative-log IC50 (pIC50) is at least 4.52.
Turning to `CON(C)C(=O)C1=NN2c3cc(F)ccc3OC[C@H]2[C@H]1c1ccccc1` [Compound 1-7, (3R,4R)-8-Fluoro-N-methoxy-N-methyl-3-phenyl-3a,4-dihydro-3H-pyrazolo[5,1-c][1,4]benzoxazine-2-carboxamide], the pIC50 under setting [1] was at least 4.52.
`CC(=O)C1=NN2c3cc(F)ccc3OCC2C1(CCCN1CCNC(=O)CC1)c1ccccc1` [Compound 4-21, 1-{3-[(3R,4R)-2-acetyl-8-fluoro-3-phenyl-3a,4-dihydro-3H-pyrazolo[5,1-c][1,4]benzoxazin-3-yl]propyl}-1,4-diazepan-5-one] showed a pIC50 of at least 4.52.
Regarding `CC(=O)C1=NN2c3cc(F)ccc3OC[C@H]2[C@@]1(CCCN1CCNC(=O)C1)c1ccccc1` [Compound 4-36, 4-{3-[(3R,4R)-2-acetyl-8-fluoro-3-phenyl-3a,4-dihydro-3H-pyrazolo[5,1-c][1,4]benzoxazin-3-yl]propyl}piperazin-2-one], under setting [1], the pIC50 is at least 4.52.
Still for that read-out and setting: next, `CC(=O)NCCNCCC[C@]1(c2ccccc2)C(C(C)=O)=NN2c3cc(F)ccc3OC[C@H]21` [Compound 4-40, N-[2-({3-[(3R,4R)-2-acetyl-8-fluoro-3-phenyl-3a,4-dihydro-3H-pyrazolo[5,1-c][1,4]benzoxazin-3-yl]propyl}amino)ethyl]acetamide]: at least 4.52.
As to `CC(=O)C1=NN2c3cc(F)ccc3OCC2C1(CCCN1CCOCC1)c1ccccc1` [Compound 4-14, (3R,4R) 1-[8-fluoro-3-(3-morpholin-4-ylpropyl)-3-phenyl-3a,4-dihydro-3H-pyrazolo[5,1-c][1,4]benzoxazin-2-yl]ethanone], the pIC50 was at least 4.52.
Consider `CC(=O)C1=NN2c3cc(C)ccc3OCC2[C@@]1(CCCN1CC2C[C@@H]1CO2)c1ccccc1` (mixture of isomers) [Compound 4-20, (3R,4R) 1-{8-methyl-3-[3-(2-oxa-5-azabicyclo[2.2.1]hept-5-yl)propyl]-3-phenyl-3a,4-dihydro-3H-pyrazolo[5,1-c][1,4]benzoxazin-2-yl}ethanone], for which the pIC50 under setting [1] is at least 4.52.
On to `CC(=O)C1=NN2c3cc(F)ccc3OC[C@H]2[C@@]1(CCCN1CCN(C(=O)c2ccno2)CC1)c1ccccc1` [Compound 4-34, 1-((3R,4R)-8-fluoro-3-{3-[4-(isoxazol-5-ylcarbonyl)piperazin-1-yl]propyl}-3-phenyl-3a,4-dihydro-3H-pyrazolo[5,1-c][1,4]benzoxazin-2-yl)ethanone], for which, under setting [1], the pIC50 is at least 4.52.
Molecule `CC(=O)C1=NN2c3cc(F)ccc3OC[C@H]2[C@@]1(CCCN1CCC(=O)N(C)CC1)c1ccccc1` [Compound 4-38, 1-{3-[(3R,4R)-2-acetyl-8-fluoro-3-phenyl-3a,4-dihydro-3H-pyrazolo[5,1-c][1,4]benzoxazin-3-yl]propyl}-4-methyl-1,4-diazepan-5-one] had a pIC50 of at least 4.52.
For the molecule `CC(=O)C1=NN2c3cc(F)ccc3OC[C@H]2[C@@]1(CCCN1CCN(C(=O)C(C)(C)C)CC1)c1ccccc1` [Compound 4-30, 1-((3R,4R)-3-{3-[4-(2,2-dimethylpropanoyl)piperazin-1-yl]propyl}-8-fluoro-3-phenyl-3a,4-dihydro-3H-pyrazolo[5,1-c][1,4]benzoxazin-2-yl)ethanone], under setting [1], the pIC50 was at least 4.52.
As for `COC(=O)C(=O)N1CCN(CCC[C@]2(c3ccccc3)C(C(C)=O)=NN3c4cc(F)ccc4OC[C@H]32)CC1` [Compound 4-31, methyl (4-{3-[(3R,4R)-2-acetyl-8-fluoro-3-phenyl-3a,4-dihydro-3H-pyrazolo[5,1-c][1,4]benzoxazin-3-yl]propyl}piperazin-1-yl)(oxo)acetate], under setting [1], the pIC50 was at least 4.52.

These data come from patent publication US7632833B2, “Mitotic kinesin inhibitors” (Merck & Co., Inc., priority 2004, dated 2009).
